The nature of data set [1]: pharmacological properties of the compounds according to the present invention (Table III footnote, test not specified). Format: in vivo.
The nature of data set [2]: LD50 determined intraperitoneally in the rat (Spearman-Karber). The settings on record: in vivo, ip, intraperitoneal. How it is done:
The LD50 doses were determined intraperitoneally in the rat and calculated by using the method of Spearman-Karber (D. J. Finney, Statistical Methods in Biological Assay, pub. Griffin & Co., London, 1952, p. 524).

For data set [3], the system named is lethality induced by a curarizing agent, oxydipentonium chloride (Brevatonal). The experiment in a line: Brevatonal test (protection against lethality induced by oxydipentonium chloride, hypoxia). Format: in vivo. The settings on record: mice, i.p. How it is done: At the doses used, this curarizing agent brings about a respiratory depression which, in turn, brings about a hypoxi-hypercapnic syndrome. A compound capable of protecting the brain during this short period of hypoxia ensures survival. The compounds are administered to groups of 10 mice one hour before the injection of the curarizing agent; concurrently herewith, a control group of 10 mice is given a physiological salt solution prior to the curarizing agent. For each compound, the proportion of surviving mice is compared with the proportion of surviving control mice by the "Fisher exact probability test". This test, called the Brevatonal test, has also been developed in our laboratories.
Intraperitoneal administration (i.p.) of compounds according to the present invention, namely, 2-methyl-1,2,4,5-tetrahydro-3H-2-benzazepin-3-one (compound A), 2,4-dimethyl-1,2,4,5-tetrahydro-3H-2-benzazepin-3-one (compound G), 2-isobutyl-4-methyl-1,2,4,5-tetrahydro-3H-2-benzazepin-3-one(compound H), 7-chloro-2-methyl-1,2,4,5-tetrahydro-3H-2-benzazepin-3-one (compound J) 8-chloro-2-methyl-1,2,4,5-tetrahydro-3H-2-benzazepin-3-one (compound K) and 8-methyl-2-pentyl-1,2,4,5-tetrahydro-3H-2-benzazepin-3-one (compound L), produces under these conditions the effects set out in the following Table II.

The test system of data set [4] is withdrawal reaction of a rat's paw. The experiment in a line: active avoidance test (memory retention, paw pressure withdrawal). The class given is in vivo. The settings on record: for Stimulus initiating the avoidance reaction 24 hours after the first stimulation: s.c.; for minimal effective dose: sc, minimum dose which lowers the stimulus to below 110 g. An excerpt: The principle of the active avoidance test, which has been developed in our laboratories and used for this purpose, may be described as follows: the withdrawal reaction of a rat's paw subjected to an increasing and measured pressure is observed. The pressure at which the withdrawal reaction is produced is called the reaction threshold. The latter is expressed in grams and thus corresponds to the minimum pressure which, when applied to the paw of the animals, causes withdrawal. It is read off directly from a scale of the apparatus used. […] Use is made of a minimum of 20 rats per test (10 treated rats and 10 control rats), the active dose being defined as the minimum dose which lowers the stimulus to below 110 g.

For data set [5], the system named is spinal fixation time. The experiment in a line: spinal fixation test (elementary model of memory) after unilateral cerebellar lesion. The class given is in vivo. The settings on record: rat, i.p., 0.1 mmole/kg (A 17.5, B 22, C 23.7 mg/kg); spinal section 35 minutes after onset of asymmetry. The text has this: Action on the mnemic processes is shown particularly by the reduction in the time for spinal fixation, a test which has been described in the literature (see C. Giurgea and F. Mouravieff-Lesuisse, Arch. Int. Pharmacodyn, 191/2, (1971), 279) as an elementary model of memory which is endowed with a pharmacological reactivity in good correlation with clinical physiopathology. In the rat, after unilateral lesion of the cerebellum, there is a postural asymmetry of the hind paws. This asymmetry may persist, even after spinal section, if the animal has been in this situation for a sufficiently long time. This time, which is called the spinal fixation time, is 45 minutes under the experimental conditions. On the other hand, if spinal section is performed before the expiry of this period, for example 35 minutes after the onset of the asymmetry, the latter disappears. […] Conversely, any product which allows the rats to retain the asymmetry (thus achieving spinal fixation) when the spinal section is carried out after 35 minutes, is regarded as being active.
Under these conditions, administration of a compound according to the present invention, for example 2-methyl-1,2,4,5-tetrahydro-3H-2-benzazepin-3-one (compound A), 2-carbamoylmethyl-1,2,4,5-tetrahydro-3H-2-benzazepin-3-one (compound B) and 5-phenyl-1,2,4,5-tetrahydro-3H-2-benzazepin-3-one (compound C) produces the following effects: […]

Data set [6] has as its system spinal fixation time. The settings on record: rat, 30 mg/kg (0.2 millimole/kg), same conditions; C. Giurgea and F. Mouravieff-Lesuisse, loc.cit.; cited from earlier work.
Where [7] appears, read: 0.175 mg/kg, control (0 mg/kg) A 164, F 154.
Where [8] appears, read: 2 mg/kg (0.01 mmole/kg), control G 1/10, H 2/10.

Results on 13 compounds are retold here after US4080449A, “1,2,4,5-Tetrahydro-3H-2-benzazepin-3-ones” (U C B, Societe Anonyme, priority 1976, dated 1978).

In general, LD50 refers to the dose at which mortality reaches 50%. A lower LD50 goes with greater toxicity. By minimal effective dose is commonly meant the smallest amount tested that counted as effective.

Values joined by “and” are separate entries in the source; they are usually repeats but may differ in a detail not shown here. Equal values may be shown once. Where only a bound is given, the exact number is not on record here.

Take `O=C1CCc2ccccc2CN1` [1,2,4,5-tetrahydro-3H-2-benzazepin-3-one]: in data set [1], the “pharmacological properties of the compounds according to the present invention” value is given as “does not have th”.
`CN1Cc2ccccc2CCC1=O` [A, 2-methyl-1,2,4,5-tetrahydro-3H-2-benzazepin-3-one] registered an LD50 in data set [2] of 760 mg/kg. In addition, in data set [3] (55 mg/kg (0.32 mmole/kg)), the Fisher exact probability was less than 0.005. Moreover, in data set [3] (55 mg/kg (0.32 mmole/kg), control 0/10), the “Proportion of survivors, treated animals” value was 7/10. The “Stimulus initiating the avoidance reaction 24 hours after the first stimulation” value in data set [4] (0.09 mg/kg, control (0 mg/kg) 164) came out at 146 g; in data set [4] (setting [7]), 106 g. Moreover, the minimal effective dose in data set [4] was 0.175 mg/kg and 1 µmol/kg. Besides, the “spinal fixation after 35 minutes (animals with fixation)” value (shortened to “spinal fixation after 35 minutes”) in the data set with spinal fixation time [5] is listed as “three animals out of five”.
With `NC(=O)CN1Cc2ccccc2CCC1=O` [B, 2-carbamoylmethyl-1,2,4,5-tetrahydro-3H-2-benzazepin-3-one], the “spinal fixation after 35 minutes” value in the data set on spinal fixation time [5] was “two animals out of four”.
As to `O=C1CC(c2ccccc2)c2ccccc2CN1` (stereo not shown) [C, 5-phenyl-1,2,4,5-tetrahydro-3H-2-benzazepin-3-one], in the data set on spinal fixation time [5], the “spinal fixation after 35 minutes” value is “four animals out of five”.
Take `COc1ccc2c(c1)CCC(=O)N(C)C2` [D, 7-methoxy-2-methyl-1,2,4,5-tetrahydro-3H-2-benzazepin-3-one]: the “Stimulus initiating the avoidance reaction 24 hours after the first stimulation” value in data set [4] (0.205 mg/kg, control (0 mg/kg) 165) is listed as 118 g; in data set [4] (1 mg/kg, control (0 mg/kg) 165) it was 90 g. Moreover, the minimal effective dose in data set [4] is 1 mg/kg and 5 µmol/kg.
With `CCCCCN1Cc2ccccc2CC(C)C1=O` (stereo not shown) [E, 4-methyl-2-pentyl-1,2,4,5-tetrahydro-3H-2-benzazepin-3-one], the “Stimulus initiating the avoidance reaction 24 hours after the first stimulation” value in data set [4] (0.24 mg/kg, control (0 mg/kg) 166) is 122 g; in data set [4] (0.49 mg/kg, control (0 mg/kg) 166) it was 89 g. The minimal effective dose in data set [4] was 0.49 mg/kg and 2 µmol/kg.
In the case of `Cc1ccc2c(c1)CNC(=O)CC2` [F, 8-methyl-1,2,4,5-tetrahydro-3H-2-benzazepin-3-one], the “Stimulus initiating the avoidance reaction 24 hours after the first stimulation” value in data set [4] (setting [7]) was found to be 121 g; in data set [4] (0.35 mg/kg, control (0 mg/kg) 154), 111 g; in data set [4] (0.87 mg/kg, control (0 mg/kg) 154), 101 g. Also, the minimal effective dose in data set [4] was 0.87 mg/kg and 5 µmol/kg.
In data set [3] (2 mg/kg (0.01 mmole/kg)), `CC1Cc2ccccc2CN(C)C1=O` (stereo not shown) [G, 2,4-dimethyl-1,2,4,5-tetrahydro-3H-2-benzazepin-3-one] had a Fisher exact probability of less than 0.05. The “Proportion of survivors, treated animals” value in data set [3] (setting [8]) is on record as 6/10.
In the case of `CC(C)CN1Cc2ccccc2CC(C)C1=O` (stereo not shown) [H, 2-isobutyl-4-methyl-1,2,4,5-tetrahydro-3H-2-benzazepin-3-one], the Fisher exact probability in data set [3] (2 mg/kg (0.01 mmole/kg)) is given as less than 0.005; in data set [3] (7 mg/kg (0.032 mmole/kg)), less than 0.05; in data set [3] (23 mg/kg (0.1 mmole/kg)), less than 0.001. Besides, the “Proportion of survivors, treated animals” value in data set [3] (setting [8]) is 9/10; in data set [3] (7 mg/kg (0.032 mmole/kg), control 2/10), 7/10; in data set [3] (23 mg/kg (0.1 mmole/kg), control 1/10), 9/10.
For `CN1Cc2ccc(Cl)cc2CCC1=O` [J, 7-chloro-2-methyl-1,2,4,5-tetrahydro-3H-2-benzazepin-3-one], the Fisher exact probability is less than 0.01 in data set [3] (21 mg/kg (0.1 mmole/kg)) and less than 0.005 in data set [3] (66 mg/kg (0.32 mmole/kg)). Moreover, the “Proportion of survivors, treated animals” value was 7/10 in data set [3] (21 mg/kg (0.1 mmole/kg), control 1/10) and 8/10 in data set [3] (66 mg/kg (0.32 mmole/kg), control 1/10).
Consider `CN1Cc2cc(Cl)ccc2CCC1=O` [K, 8-chloro-2-methyl-1,2,4,5-tetrahydro-3H-2-benzazepin-3-one], for which the Fisher exact probability in data set [3] (21 mg/kg (0.12 mmole/kg as printed)) and in data set [3] (66 mg/kg (0.37 mmole/kg as printed)) was less than 0.05 each time. For the same compound, the “Proportion of survivors, treated animals” value is reported as 6/10 in data set [3] (21 mg/kg (0.12 mmole/kg as printed), control 1/10) and 6/10 in data set [3] (66 mg/kg (0.37 mmole/kg as printed), control 1/10).
For `CCCCCN1Cc2cc(C)ccc2CCC1=O` [L, 8-methyl-2-pentyl-1,2,4,5-tetrahydro-3H-2-benzazepin-3-one], the Fisher exact probability in data set [3] (78 mg/kg (0.32 mmole/kg)) is given as less than 0.05. The “Proportion of survivors, treated animals” value in data set [3] (78 mg/kg (0.32 mmole/kg), control 0/5) was 6/10.
On to `NC(=O)CN1CCCC1=O` [piracetam, reference compound], for which the Fisher exact probability result is “not significant” in data set [3] (45 mg/kg (0.32 mmole/kg)), “not significant” in data set [3] (142 mg/kg (1 mmole/kg)) and less than 0.005 in data set [3] (454 mg/kg (3.2 mmole/kg)). The “Proportion of survivors, treated animals” value in data set [3] (45 mg/kg (0.32 mmole/kg), control 0/10) is on record as 1/10; in data set [3] (142 mg/kg (1 mmole/kg), control 2/10), 4/10; in data set [3] (454 mg/kg (3.2 mmole/kg), control 1/10), 8/10. Also, the “Stimulus initiating the avoidance reaction 24 hours after the first stimulation” value in data set [4] (1.5 mg/kg, control (0 mg/kg) 153) is reported as 120 g; in data set [4] (3.5 mg/kg, control (0 mg/kg) 153), 90 g. In data set [4], the minimal effective dose is 3.5 mg/kg and 25 µmol/kg. The “retention in active avoidance test” value in data set [4] (tested 24 hours later, versus control animals, dose not given in sentence) is listed as “significant degree of retention”. The “spinal fixation (animals with fixation)” value with spinal fixation time [6] is listed as “four animals out of nine”.
